Assay results reported in ChEMBL document CHEMBL3997822, “Asymmetric total synthesis of tetrahydroprotoberberine derivatives and evaluation of their binding affinities at dopamine receptors” (Bioorg Med Chem Lett, 2017).

Tests used:
D(4) dopamine receptor [1] = molecular target: T1, D(4) dopamine receptor (Homo sapiens, UniProt P21917); test: Displacement of [3H]N-methylspiperone from human dopamine D4 receptor after 1 hr
T1 sequence (P21917 whole entry): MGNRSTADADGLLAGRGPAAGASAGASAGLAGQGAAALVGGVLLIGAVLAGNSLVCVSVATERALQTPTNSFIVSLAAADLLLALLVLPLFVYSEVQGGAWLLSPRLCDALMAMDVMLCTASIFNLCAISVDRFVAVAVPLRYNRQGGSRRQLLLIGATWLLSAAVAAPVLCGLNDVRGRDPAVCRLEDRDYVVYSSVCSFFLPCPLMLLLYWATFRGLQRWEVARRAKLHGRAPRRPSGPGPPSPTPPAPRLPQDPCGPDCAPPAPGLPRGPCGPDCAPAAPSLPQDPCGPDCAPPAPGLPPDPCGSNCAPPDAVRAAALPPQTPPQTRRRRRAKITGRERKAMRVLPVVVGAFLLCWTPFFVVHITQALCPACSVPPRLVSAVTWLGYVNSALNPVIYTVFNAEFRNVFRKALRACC

D(2) dopamine receptor [2] = molecular target: T2, D(2) dopamine receptor (Homo sapiens, UniProt P14416); test: Displacement of [3H]N-methylspiperone from human dopamine D2 receptor after 1 hr
T2 sequence (P14416 whole entry): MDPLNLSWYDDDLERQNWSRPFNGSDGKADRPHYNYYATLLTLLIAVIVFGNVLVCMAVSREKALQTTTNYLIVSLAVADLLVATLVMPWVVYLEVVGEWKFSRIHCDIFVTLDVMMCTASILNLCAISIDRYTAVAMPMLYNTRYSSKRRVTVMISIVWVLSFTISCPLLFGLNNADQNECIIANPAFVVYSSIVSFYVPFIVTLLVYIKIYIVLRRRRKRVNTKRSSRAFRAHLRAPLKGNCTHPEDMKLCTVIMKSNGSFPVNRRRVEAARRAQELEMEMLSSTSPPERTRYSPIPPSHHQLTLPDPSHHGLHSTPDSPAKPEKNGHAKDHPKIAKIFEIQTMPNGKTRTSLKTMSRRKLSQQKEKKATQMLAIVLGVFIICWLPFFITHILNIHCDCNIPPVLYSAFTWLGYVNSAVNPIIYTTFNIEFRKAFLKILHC

D(3) dopamine receptor [3] = molecular target: T3, D(3) dopamine receptor (Homo sapiens, UniProt P35462); test: Displacement of [3H]N-methylspiperone from human dopamine D3 receptor after 1 hr
T3 sequence (P35462 whole entry): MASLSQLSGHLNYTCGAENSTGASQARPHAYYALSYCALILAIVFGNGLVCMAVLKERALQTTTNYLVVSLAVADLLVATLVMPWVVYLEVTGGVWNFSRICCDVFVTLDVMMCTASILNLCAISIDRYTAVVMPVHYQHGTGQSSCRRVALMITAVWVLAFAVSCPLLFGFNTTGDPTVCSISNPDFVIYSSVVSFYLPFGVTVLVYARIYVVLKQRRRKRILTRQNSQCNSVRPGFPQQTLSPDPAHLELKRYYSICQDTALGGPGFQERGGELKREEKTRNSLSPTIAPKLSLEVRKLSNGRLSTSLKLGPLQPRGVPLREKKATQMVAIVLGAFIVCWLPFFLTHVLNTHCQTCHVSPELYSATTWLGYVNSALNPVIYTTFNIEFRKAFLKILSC

D(1B) dopamine receptor [4] = molecular target: T4, D(1B) dopamine receptor (Homo sapiens, UniProt P21918); test: Displacement of [3H]SCH23390 from human dopamine D5 receptor after 1 hr
T4 sequence (P21918 whole entry): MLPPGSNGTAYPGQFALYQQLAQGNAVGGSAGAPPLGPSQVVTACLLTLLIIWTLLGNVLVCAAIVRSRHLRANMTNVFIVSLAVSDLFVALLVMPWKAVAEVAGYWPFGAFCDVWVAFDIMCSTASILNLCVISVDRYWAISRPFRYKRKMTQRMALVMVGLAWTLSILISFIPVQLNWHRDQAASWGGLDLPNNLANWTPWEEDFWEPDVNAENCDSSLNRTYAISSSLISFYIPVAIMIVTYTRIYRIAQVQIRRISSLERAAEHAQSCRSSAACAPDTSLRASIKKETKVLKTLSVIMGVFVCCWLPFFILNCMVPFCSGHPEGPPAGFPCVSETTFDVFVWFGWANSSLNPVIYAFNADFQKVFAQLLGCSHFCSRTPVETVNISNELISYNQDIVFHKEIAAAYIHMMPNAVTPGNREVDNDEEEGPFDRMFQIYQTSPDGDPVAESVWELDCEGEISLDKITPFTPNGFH

D(1A) dopamine receptor [5] = molecular target: T5, D(1A) dopamine receptor (Homo sapiens, UniProt P21728); test: Displacement of [3H]SCH23390 from human dopamine D1 receptor after 1 hr
T5 sequence (P21728 whole entry): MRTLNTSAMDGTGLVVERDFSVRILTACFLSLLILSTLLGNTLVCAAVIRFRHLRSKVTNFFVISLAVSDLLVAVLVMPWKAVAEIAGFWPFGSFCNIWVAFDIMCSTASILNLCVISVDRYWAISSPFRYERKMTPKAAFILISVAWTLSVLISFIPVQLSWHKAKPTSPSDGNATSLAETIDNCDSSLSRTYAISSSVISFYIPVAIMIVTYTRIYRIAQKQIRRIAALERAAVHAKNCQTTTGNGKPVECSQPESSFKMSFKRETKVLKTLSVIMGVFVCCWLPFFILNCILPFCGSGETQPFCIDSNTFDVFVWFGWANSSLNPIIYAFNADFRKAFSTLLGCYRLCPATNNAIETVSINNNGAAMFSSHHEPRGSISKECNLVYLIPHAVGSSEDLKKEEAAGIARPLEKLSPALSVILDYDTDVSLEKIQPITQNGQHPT

D(3) dopamine receptor [6] = molecular target: T3, D(3) dopamine receptor; test: biochemical
D(4) dopamine receptor [7] = molecular target: T1, D(4) dopamine receptor; test: Displacement of [3H]SCH23390 from human dopamine D4 receptor expressed in HEK293 cells after 1 hr; format: cell-based
D(1A) dopamine receptor [8] = molecular target: T5, D(1A) dopamine receptor; test: Displacement of [3H]SCH23390 from human 3HA-tagged dopamine D1 receptor expressed in HEK293 cells after 1 hr; format: cell-based
D(2) dopamine receptor [9] = molecular target: T2, D(2) dopamine receptor; test: Displacement of [3H]SCH23390 from human FLAG-tagged dopamine D2 receptor expressed in HEK293 cells after 1 hr; format: cell-based
D(1B) dopamine receptor [10] = molecular target: T4, D(1B) dopamine receptor; conditions: hek293

COc1cc2c(cc1OC)[C@@H]1Cc3ccc(O)c(OC)c3CN1CC2
Ki (D(4) dopamine receptor [1]): > 1000 nM | Ki (D(2) dopamine receptor [2]): 533 nM | Ki (D(3) dopamine receptor [3]): 1710 nM | Ki (D(1B) dopamine receptor [4]): 242 nM | Ki (D(1A) dopamine receptor [5]): 107 nM

COc1cc2c(cc1O)[C@@H]1Cc3ccc(OC)c(OC)c3CN1CC2
Ki (D(3) dopamine receptor [6]): 37.3 nM | Ki (D(4) dopamine receptor [7]): 77.4 nM | Ki (D(1A) dopamine receptor [8]): […]

COc1cc2c(cc1O)CCN1Cc3c(ccc(OC)c3OC)C[C@@H]21
Ki (D(4) dopamine receptor [1]): > 1000 nM | Ki (D(2) dopamine receptor [2]): 42.4 nM | Ki (D(3) dopamine receptor [3]): 262 nM | Ki (D(1B) dopamine receptor [4]): 313 nM | Ki (D(1A) dopamine receptor [5]): 199 nM

COc1c(O)ccc2c1CN1CCc3cc4c(cc3[C@@H]1C2)OCO4
Ki (D(4) dopamine receptor [1]): 1980 nM | Ki (D(2) dopamine receptor [2]): 49.2 nM | Ki (D(3) dopamine receptor [3]): 82.4 nM | Ki (D(1B) dopamine receptor [4]): 15.1 nM | Ki (D(1A) dopamine receptor [5]): 6.5 nM

COc1ccc2c(c1OC)CN1CCc3cc4c(cc3[C@@H]1C2)OCO4 [CANADINE]
Ki (D(4) dopamine receptor [1]): 486 nM | Ki (D(2) dopamine receptor [2]): 80.2 nM | Ki (D(3) dopamine receptor [3]): 433 nM | Ki (D(1B) dopamine receptor [4]): 62.1 nM | Ki (D(1A) dopamine receptor [5]): 48.6 nM

COc1cc2c(cc1OC)[C@@H]1Cc3ccc(OC)c(OC)c3CN1CC2 [TETRAHYDROPALMATINE]
Ki (D(2) dopamine receptor [9]): 1120 nM | Ki (D(1B) dopamine receptor [10]): 305 nM | Ki (D(4) dopamine receptor [7]): > 1000 nM | Ki (D(1A) dopamine receptor [8]; hek293): 153 nM
